Measurements reported in patent US6737383B1, “Herbicidal oxadiazolidines” (priority 1999, dated 2004).

Legend:
soybean = test: Test B pre/postemergence soybean; assay type: in vivo, Glycine max
Method in brief: (§1)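 Herbicidal effect was estimated by eye on a ten-point control scale after plants spent twelve to sixteen days in a greenhouse following soil or foliar treatment. Foliar sprays targeted plants at one to four leaves; all doses were formulated in a non-phytotoxic solvent with surfactant.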

wild oat = test: Test B pre/postemergence wild oat; assay type: in vivo, Avena fatua
Method in brief: as §1

crabgrass = test: Test B pre/postemergence crabgrass; assay type: in vivo, Digitaria sanguinalis
Method in brief: as §1

surinam grass = test: Test B pre/postemergence surinam grass; assay type: in vivo, Brachiaria decumbens
Method in brief: as §1

bedstraw = test: Test B pre/postemergence bedstraw; assay type: in vivo, Galium aparine
Method in brief: as §1

wheat = test: Test B pre/postemergence wheat; assay type: in vivo, Triticum aestivum
Method in brief: as §1

pigweed = test: Test B pre/postemergence pigweed; assay type: in vivo, Amaranthus retroflexus
Method in brief: as §1

velvetleaf = test: Test B pre/postemergence velvetleaf; assay type: in vivo, Abutilon theophrasti
Method in brief: as §1

sugar beet = test: Test B pre/postemergence sugar beet; assay type: in vivo, Beta vulgaris
Method in brief: as §1

purple nutsedge = test: Test B pre/postemergence purple nutsedge; assay type: in vivo, Cyperus rotundus
Method in brief: as §1

giant foxtail = test: Test B pre/postemergence giant foxtail; assay type: in vivo, Setaria faberii
Method in brief: as §1

morningglory = test: Test B pre/postemergence morningglory; assay type: in vivo, Ipomoea hederacea
Method in brief: as §1

corn = test: Test B pre/postemergence corn; assay type: in vivo, Zea mays
Method in brief: as §1

cocklebur = test: Test B pre/postemergence cocklebur; assay type: in vivo, Xanthium strumarium
Method in brief: as §1

rape = test: Test B pre/postemergence rape; assay type: in vivo, Brassica napus
Method in brief: as §1

blackgrass = test: Test B pre/postemergence blackgrass; assay type: in vivo, Alopecurus myosuroides
Method in brief: as §1

[1] = Postemergence, Rate 62 g/ha, scale of 0 to 10, 0 is no effect, 10 is complete control
[2] = Postemergence, Rate 125 g/ha, scale 0 to 10, 0 is no effect, 10 is complete control
[3] = Postemergence, Rate 500 g/ha, scale 0 to 10, 0 is no effect, 10 is complete control
[4] = Preemergence, Rate 62 g/ha, scale 0 to 10 (0 no effect, 10 complete control)
[5] = Preemergence, Rate 125 g/ha, scale 0 to 10, 0 is no effect, 10 is complete control
[6] = Preemergence, Rate 500 g/ha, scale of 0 to 10 where 0 is no effect and 10 is complete control
[7] = Rate 250 g/ha, Postemergence, scale of 0 to 10 where 0 is no effect and 10 is complete control

Compound: CCOC(=O)C=C(Cn1c(=O)on(C(=O)N(c2ccc(Cl)cc2)C(C)C)c1=O)OCC [Compound 549]
- Soybean plant response rating (soybean; [1]): 2
- Soybean plant response rating (soybean; [2]): 2
- Plant response rating, Soybean (soybean; [3]): 3
- Soybean plant response rating (soybean; [4]): 0
- Soybean plant response rating (soybean; [5]): 0
- Soybean plant response rating (0 to 10 scale) (soybean; Preemergence, Rate 250 g/ha): 0
- Soybean plant response rating (soybean; [6]): 0
- Plant response rating, Soybean (soybean; [7]): 2
- Wild oats plant response rating (wild oat; [1]): 0
- Wild oats plant response rating (wild oat; [2]): 0
- Plant response rating, Wild oats (wild oat; [3]): 2
- Wild oats plant response rating (wild oat; [4]): 0
- Wild oats plant response rating (wild oat; [5]): 0
- Wild oats plant response rating (0 to 10 scale) (wild oat; Preemergence, Rate 250 g/ha): 0
- Wild oats plant response rating (wild oat; [6]): 3
- Plant response rating, Wild oats (wild oat; [7]): 0
- Crabgrass plant response rating (crabgrass; [1]): 2
- Crabgrass plant response rating (crabgrass; [2]): 3
- Plant response rating, Crabgrass (crabgrass; [3]): 9
- Crabgrass plant response rating (crabgrass; [4]): 3
- Crabgrass plant response rating (crabgrass; [5]): 7
- Crabgrass plant response rating (0 to 10 scale) (crabgrass; Preemergence, Rate 250 g/ha): 10
- Crabgrass plant response rating (crabgrass; [6]): 10
- Plant response rating, Crabgrass (crabgrass; [7]): 6
- B. signalgrass plant response rating (surinam grass; [1]): 0
- B. signalgrass plant response rating (surinam grass; [2]): 0
- Plant response rating, B. signalgrass (surinam grass; [3]): 3
- B. signalgrass plant response rating (surinam grass; [4]): 0
- B. signalgrass plant response rating (surinam grass; [5]): 0
- B. signalgrass plant response rating (0 to 10 scale, 0 is no effect, 10 is complete control) (surinam grass; Preemergence, Rate 250 g/ha): 0
- B. signalgrass plant response rating (surinam grass; [6]): 0
- Plant response rating, B. signalgrass (surinam grass; [7]): 0
- Bedstraw plant response rating (bedstraw; [1]): 0
- Bedstraw plant response rating (bedstraw; [2]): 0
- Plant response rating, Bedstraw (bedstraw; [3]): 8
- Bedstraw plant response rating (bedstraw; [4]): 0
- Bedstraw plant response rating (bedstraw; [5]): 0
- Bedstraw plant response rating (0 to 10 scale) (bedstraw; Preemergence, Rate 250 g/ha): 5
- Bedstraw plant response rating (bedstraw; [6]): 5
- Plant response rating, Bedstraw (bedstraw; [7]): 0
- Wheat plant response rating (wheat; [1]): 0
- Wheat plant response rating (wheat; [2]): 0
- Plant response rating, Wheat (wheat; [3]): 2
- Wheat plant response rating (wheat; [4]): 0
- Wheat plant response rating (wheat; [5]): 0
- Wheat plant response rating (wheat; [6]): 0
- Plant response rating, Wheat (wheat; [7]): 0
- Redroot pigweed plant response rating (pigweed; [1]): 0
- Redroot pigweed plant response rating (pigweed; [2]): 0
- Plant response rating, Redroot pigweed (pigweed; [3]): 8
- Redroot pigweed plant response rating (pigweed; [4]): 6
- Redroot pigweed plant response rating (pigweed; [5]): 6
- Plant response rating, Redroot pigweed (pigweed; [7]): 0
- Velvetleaf plant response rating (velvetleaf; [2]): 0
- Plant response rating, Velvetleaf (velvetleaf; [3]): 4
- Velvetleaf plant response rating (velvetleaf; [4]): 0
- Velvetleaf plant response rating (velvetleaf; [5]): 0
- Velvetleaf plant response rating (0 to 10 scale) (velvetleaf; Preemergence, Rate 250 g/ha): 0
- Velvetleaf plant response rating (velvetleaf; [6]): 0
- Plant response rating, Velvetleaf (velvetleaf; [7]): 4
- Sugarbeets plant response rating (sugar beet; [1]): 0
- Sugarbeets plant response rating (sugar beet; [2]): 0
- Plant response rating, Sugarbeets (sugar beet; [3]): 4
- Sugarbeets plant response rating (sugar beet; [4]): 0
- Sugarbeets plant response rating (sugar beet; [5]): 0
- Sugarbeets plant response rating (0 to 10 scale) (sugar beet; Preemergence, Rate 250 g/ha): 0
- Sugarbeets plant response rating (sugar beet; [6]): 3
- Plant response rating, Sugarbeets (sugar beet; [7]): 0
- Nutsedge plant response rating (purple nutsedge; [2]): 0
- Plant response rating, Nutsedge (purple nutsedge; [3]): 0
- Nutsedge plant response rating (purple nutsedge; [5]): 0
- Nutsedge plant response rating (0 to 10 scale) (purple nutsedge; Preemergence, Rate 250 g/ha): 0
- Nutsedge plant response rating (purple nutsedge; [6]): 0
- Giant foxtail plant response rating (giant foxtail; [1]): 2
- Giant foxtail plant response rating (giant foxtail; [2]): 2
- Plant response rating, Giant foxtail (giant foxtail; [3]): 7
- Giant foxtail plant response rating (giant foxtail; [4]): 9
- Giant foxtail plant response rating (giant foxtail; [5]): 10
- Giant foxtail plant response rating (0 to 10 scale) (giant foxtail; Preemergence, Rate 250 g/ha): 10
- Giant foxtail plant response rating (giant foxtail; [6]): 10
- Plant response rating, Giant foxtail (giant foxtail; [7]): 2
- Morningglory plant response rating (morningglory; [1]): 4
- Morningglory plant response rating (morningglory; [2]): 4
- Plant response rating, Morningglory (morningglory; [3]): 4
- Morningglory plant response rating (morningglory; [4]): 0
- Morningglory plant response rating (morningglory; [5]): 0
- Morningglory plant response rating (0 to 10 scale) (morningglory; Preemergence, Rate 250 g/ha): 0
- Morningglory plant response rating (morningglory; [6]): 0
- Plant response rating, Morningglory (morningglory; [7]): 4
- Corn plant response rating (corn; [1]): 0
- Corn plant response rating (corn; [2]): 0
- Plant response rating, Corn (corn; [3]): 0
- Corn plant response rating (corn; [4]): 0
- Corn plant response rating (corn; [5]): 0
- Corn plant response rating (0 to 10 scale) (corn; Preemergence, Rate 250 g/ha): 0
- Corn plant response rating (corn; [6]): 0
- Plant response rating, Corn (corn; [7]): 0
- Cocklebur plant response rating (cocklebur; [1]): 0
- Cocklebur plant response rating (cocklebur; [2]): 0
- Plant response rating, Cocklebur (cocklebur; [3]): 4
- Cocklebur plant response rating (cocklebur; [4]): 0
- Cocklebur plant response rating (cocklebur; [5]): 0
- Cocklebur plant response rating (0 to 10 scale) (cocklebur; Preemergence, Rate 250 g/ha): 0
- Cocklebur plant response rating (cocklebur; [6]): 0
- Plant response rating, Cocklebur (cocklebur; [7]): 0
- Rape plant response rating (rape; [1]): 0
- Rape plant response rating (rape; [2]): 0
- Plant response rating, Rape (rape; [3]): 7
- Rape plant response rating (rape; [4]): 0
- Rape plant response rating (rape; [5]): 0
- Rape plant response rating (0 to 10 scale) (rape; Preemergence, Rate 250 g/ha): 0
- Rape plant response rating (rape; [6]): 0
- Plant response rating, Rape (rape; [7]): 5
- Blackgrass plant response rating (blackgrass; [1]): 0
- Blackgrass plant response rating (blackgrass; [2]): 0
- Plant response rating, Blackgrass (blackgrass; [3]): 3
- Blackgrass plant response rating (blackgrass; [4]): 0
- Blackgrass plant response rating (blackgrass; [5]): 4
- Blackgrass plant response rating (0 to 10 scale) (blackgrass; Preemergence, Rate 250 g/ha): 6
- Plant response rating, Blackgrass (blackgrass; [7]): 2
